The test has as its target T1, recombinant human CETP (Homo sapiens, UniProt P11597).
T1 construct: made in house; host or cells: CHO cells (protein secreted into conditioned medium)
T1 sequence (P11597 18-493): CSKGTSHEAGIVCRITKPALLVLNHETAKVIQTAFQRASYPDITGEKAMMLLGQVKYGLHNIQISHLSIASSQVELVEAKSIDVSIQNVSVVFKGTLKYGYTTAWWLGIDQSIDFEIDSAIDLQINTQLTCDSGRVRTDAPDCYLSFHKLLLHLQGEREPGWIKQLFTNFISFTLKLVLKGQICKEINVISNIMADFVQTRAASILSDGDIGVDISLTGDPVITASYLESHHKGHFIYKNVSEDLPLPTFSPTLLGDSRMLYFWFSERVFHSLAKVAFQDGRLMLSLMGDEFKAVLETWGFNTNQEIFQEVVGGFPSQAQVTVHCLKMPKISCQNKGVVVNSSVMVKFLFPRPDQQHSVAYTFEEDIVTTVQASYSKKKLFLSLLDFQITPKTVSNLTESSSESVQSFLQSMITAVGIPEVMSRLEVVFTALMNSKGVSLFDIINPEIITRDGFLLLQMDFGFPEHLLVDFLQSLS
The test can be described thus: CETP in vitro fluorometric assay (Roar Biomedical), cholesterol ester transfer from HDL to LDL. The test is classed as biochemical. The following applies: recombinant human CETP from CHO cells; 3 hours at 37° C.; fluorescence ex 485 nm / em 535 nm; compound concentrations between 1 nM and 30 μM; read-out: IC50 values for inhibition of CETP. Here is the method: CETP inhibitory activity of compounds of the present invention can be determined in a fluorometric assay puchased from Roar Biomedical, Inc. (New York, N.Y., USA). […] Recombinant human CETP was partially purified from medium conditioned by CETP expressing CHO cells. In a 384 well format 2.5 μl of compound solution in DMSO was combined with 2 μl of donor solution, 2 μl of acceptor solution and 0.8 μl of recombinant human CETP solution in a total volume of 100 μl with assay buffer and incubated for 3 hours at 37° C. The fluorescence intensity was measured at excitation wavelength of 485 nm and emission wavelength of 535 nm. IC50 values are calculated from dose effect curves from compound concentrations between 1 nM and 30 μM.
Take `CC(C)c1nc2c(c3c1[C@H](c1ccc(C(F)(F)F)cc1)OC31CCCC1)[C@@H](O)CC(C)(C)C2` [1(1), (3′S,9′S)-4′-isopropyl-7′,7′-dimethyl-3′-(4-(trifluoromethyl)phenyl)-6′,7′,8′,9′-tetrahydro-3′H-spiro[cyclopentane-1,1′-furo[3,4-c]quinolin]-9′-ol]: the IC50 was found to be 1430 nM. Then `CC(C)c1nc2c(c3c1[C@H](c1ccc(C(F)(F)F)cc1)O[C@]31C=CCC1)[C@@H](O)CC(C)(C)C2` [1(2), (1R,3′S,9′S)-4′-isopropyl-7′,7′-dimethyl-3′-(4-(trifluoromethyl)phenyl)-6′,7′,8′,9′-tetrahydro-3′H-spiro[cyclopent[2]ene-1,1′-furo[3,4-c]quinolin]-9′-ol], with 4680 nM. Under `CC(C)c1nc2c(c3c1[C@@H](c1ccc(C(F)(F)F)cc1)OC3(C)C)[C@@H](O)CC(C)(C)C2` [1(3), (3R,9S)-4-isopropyl-1,1,7,7-tetramethyl-3-(4-(trifluoromethyl)phenyl)-1,3,6,7,8,9-hexahydrofuro[3,4-c]quinolin-9-ol] stands 460 nM.

`CC1(C)Cc2nc(C3CCOCC3)c3c(c2[C@@H](O)C1)C1(CCCC1)O[C@@H]3c1ccc(C(F)(F)F)cc1` [1(5), (3′R,9′S)-7′,7′-dimethyl-4′-(tetrahydro-2H-pyran-4-yl)-3′-(4-(trifluoromethyl)phenyl)-6′,7′,8′,9′-tetrahydro-3′H-spiro[cyclopentane-1,1′-furo[3,4-c]quinolin]-9′-ol]: the IC50 was determined as 42 nM. Turning to `CC1(C)Cc2nc(C3CCCC3)c3c(c2[C@@H](O)C1)C1(CCCC1)O[C@@H]3c1ccc(C(F)(F)F)cc1` [1(6), (3′R,9′S)-4′-cyclopentyl-7′,7′-dimethyl-3′-(4-(trifluoromethyl)phenyl)-6′,7′,8′,9′-tetrahydro-3′H-spiro[cyclopentane-1,1′-furo[3,4-c]quinolin]-9′-ol], the IC50 came to 37 nM.

With `CC(C)c1ccc([C@H]2OC3(CCCC3)c3c2c(C(C)C)nc2c3[C@@H](O)CC(C)(C)C2)cc1` [1(7), (3′R,9′S)-4′-isopropyl-3′-(4-isopropylphenyl)-7′,7′-dimethyl-6′,7′,8′,9′-tetrahydro-3′H-spiro[cyclopentane-1,1′-furo[3,4-c]quinolin]-9′-ol], the IC50 amounted to 77 nM. In the case of `CC(C)c1nc2c(c3c1[C@@H](c1ccc(F)cc1)OC31CCCC1)[C@@H](O)CC(C)(C)C2` [1(8), (3′R,9′S)-3′-(4-fluorophenyl)-4′-isopropyl-7′,7′-dimethyl-6′,7′,8′,9′-tetrahydro-3′H-spiro[cyclopentane-1,1′-furo[3,4-c]quinolin]-9′-ol], the IC50 is 856 nM. Then `CC(C)c1nc2c(c3c1[C@@H](c1ccc(Cl)cc1)OC31CCCC1)[C@@H](O)CC(C)(C)C2` [1(9), (3′R,9′S)-3′-(4-chlorophenyl)-4′-isopropyl-7′,7′-dimethyl-6′,7′,8′,9′-tetrahydro-3′H-spiro[cyclopentane-1,1′-furo[3,4-c]quinolin]-9′-ol], with 148 nM; and `CC1(C)Cc2nc(C3CCCC3)c3c(c2[C@@H](O)C1)C1(CCCC1)O[C@@H]3c1ccc(F)cc1` [1(10), (3′R,9′S)-4′-cyclopentyl-3′-(4-fluorophenyl)-7′,7′-dimethyl-6′,7′,8′,9′-tetrahydro-3′H-spiro[cyclopentane-1,1′-furo[3,4-c]quinolin]-9′-ol], with 360 nM; and `CC(C)c1nc2c(c3c1[C@@H](c1ccc(C(C)(C)C)cc1)OC31CCCC1)[C@@H](O)CC(C)(C)C2` [1(11), (3′R,9′S)-3′-(4-tert-butylphenyl)-4′-isopropyl-7′,7′-dimethyl-6′,7′,8′,9′-tetrahydro-3′H-spiro[cyclopentane-1,1′-furo[3,4-c]quinolin]-9′-ol], with 36 nM. Then `CC(C)c1nc2c(c3c1[C@@H](c1ccc(C(F)(F)F)nc1)OC31CCCC1)[C@@H](O)CC(C)(C)C2` [1(12), (3′R,9′S)-4′-isopropyl-7′,7′-dimethyl-3′-(6-(trifluoromethyl)pyridin-3-yl)-6′,7′,8′,9′-tetrahydro-3′H-spiro[cyclopentane-1,1′-furo[3,4-c]quinolin]-9′-ol], with 150 nM.

These data come from patent US20120053197A1, “TRICYCLIC PYRIDINE DERIVATIVES, MEDICAMENTS CONTAINING SUCH COMPOUNDS, THEIR USE AND PROCESS FOR THEIR PREPARATION” (BOEHRINGER INGELHEIM INTERNATIONAL GMBH, priority 2010, published 2012).
